# Experimental data as given in patent US20200023001A1, “GlycoFix (Structurally And Functionally Repaired Endothelial Glycocalyx)” (Northeastern University, priority 2018, published 2020).
# Tests used:
# Type in all cases: cell-based, rat
# [1] = test system: Cx-containing gap junctions of RFPEC; assay: Lucifer Yellow scratch-loading dye transfer assay (gap junction communication)
# Experimental: (§1) Cell Culture. Rat fat pad ECs (RFPEC) at passages 20 to 39 were offspring of cells isolated from rat epididymal fat pad and provided by Dr. Mia Thi of Albert Einstein College of Medicine (Bronx, N.Y.). […] The RFPECs are immortalized, making it possible to use late passages. RFPEC were seeded on 12-14-mm diameter and 0.13-0.17-mm thick glass coverslips at a seeding density of 15,000-20,000 cells/cm^2. Cells were cultured in Dulbecco's Modified Eagle Medium (DMEM, Invitrogen, USA) with 1% penicillin-streptomycin (PS) and 10% fetal bovine serum (FBS, Gibco Life Technologies). Cells were maintained in humidity at 37° C. and 5% CO2. RFPECs reached full confluence in 3 days.
# (§2) Cultured RFPECs produce thick and robust GCX in this time period. At 3 days post-seeding the RFPECs' culture medium was supplemented with 1% BSA in place of FBS to stabilize the GCX during preservation and immunolabeling (described below). For enzyme treatment experiments, 25 micro-international units per milliliter (μIU/ml) of heparinase III (Hep III; IBEX, Canada) were added to BSA-containing culture media for 2 hours to degrade HS from the GCX [46]. HepIII was washed out, and the wash-out was followed by a 16-hour incubation of RFPECs in regular BSA-containing media. In self-recovery experiments, RFPEC GCX was left to recover for 24 hours after enzyme degradation. The time frame was chosen in accordance with the 20-hour time period that is required for HS restoration to occur on the surface of ECs. For HS recovery experiments, exogenous HS and/or S1P were applied for 16 hours to accommodate the communication test as an assessment of functional glycocalyx recovery. […] After HS was degraded with HepIII, it was replaced by a 16-hour feeding of RFPECs with 59 μg/ml exogenous porcine mucosal HS (Celsus, Cincinnati, Ohio), based on published serum concentration of HS [43]. In sphingosine-1-phosphate experiments, culture media containing enzyme was substituted for media containing either 10 μM of S1P (Sigma-Aldrich) or a combination of 59 μg/ml of HS and 10 μM of S1P for 16 hours after enzyme degradation.
# Dye transfer assay, fluorescence microscopy and image analysis. Gap junction functionality was assessed by loading Lucifer Yellow in RFPECs, using a scratch technique, and observing the extent of Lucifer Yellow transfer from loaded cells to neighboring cells (FIG. 7B). Lucifer Yellow has a molecular weight of 457.3 and can only enter cells via broken membranes or via gap junctions. The scratch loading technique involved pre-incubation of RFPECs (for 1 minute) with calcium- and magnesium-free Hanks' Balanced Salt Solution (HBSS; Life Technology) containing 5 mg/ml Lucifer Yellow dye (Life Technology). A 5-μm diameter tip scribe (Ted Pella, Inc, USA) was then used to carefully create a straight scratch in the RFPEC monolayer and to allow the dye to enter the scratched cells. After the dye was loaded, it spread via open gap junctions to adjacent intact cells, with the extent of Lucifer Yellow spread reaching a plateau by 10 minutes after loading. At that point, excess dye was washed out and RFPECs were imaged at 10× magnification (dry objective) using a Zeiss Observer Z1 fluorescence microscope. From recorded images of dye transfer after scratch loading, ImageJ randomly selected dye spread locations that would be quantified along the scratch. At those random locations, lines perpendicular to the scratch axis were drawn, and the intact fluorescent cells (scratched cells excluded) were counted. […]
# [2] = test system: heparan sulfate (HS) of RFPEC glycocalyx; assay: HS expression (coverage) in RFPEC glycocalyx by immunofluorescence confocal microscopy (Example 1)
# Experimental: as §1, §2
# Immunostaining. RFPECs have high affinity to most antibodies that are available for performing immunocytochemistry. For heparan sulfate (HS), RFPEC monolayers were treated with 2% paraformaldehyde/1% glutaraldehyde in phosphate buffered saline (PBS) for fixation, treated with 2% goat serum in PBS to block non-specific ligands, and stained for three nights at 4° C. with a 1:100 10E4-epitope HS antibody (Amsbio).
# As specified by the manufacturer, the HS antibody reacts with many types of heparan sulfate. The reactivity of the HS antibody is abolished after treatment with Hep III, indicating antibody specificity. […]
# [3] = test system: Cx43 at RFPEC borders; assay: Cx43 expression at EC borders, immunostaining and confocal microscopy
# Experimental: as §1, §2
# As specified by the manufacturer, the HS antibody reacts with many types of heparan sulfate. The reactivity of the HS antibody is abolished after treatment with Hep III, indicating antibody specificity. For secondary detection of HS, Alexa Flour 488 conjugated goat anti-mouse IgG/IgM (H+L; Life Technologies) secondary antibody was used. RFPECs to be processed for connexin 43 (Cx43) were fixed in 4% paraformaldehyde, permeabilized in 0.2% Triton X-100 (Fisher), and blocked in 5% goat serum combined with 0.2% Triton X-100. Connexin 43 staining was performed overnight at 4° C. with 1:100 mouse monoclonal Cx43 antibody (Millipore). […] Secondary Cx43 detection was done with Alexa Flour 488 conjugated goat anti-mouse IgG. […] These controls confirmed that the staining observed in the RFPECs is not an artefact.
# Confocal immunofluorescence microscopy imaging and analysis. Alexa Fluor 488 fluorescent RFPECs were mounted with Vectashield containing DAPI (Vector Labs) and imaged with a Zeiss LSM 700 laser scanning confocal microscope. HS and Cx43 were imaged at 63× magnification (oil objective) and 40× magnification (oil objective), respectively. Lasers with excitation wavelengths of 490 nm (for HS or Cx43) and 350 nm (for DAPI) were used to obtain XY-plane slices. Laser gain and transmission were kept below fluorophore saturation levels. Confocal slice intervals were 0.2 μm for HS and 0.7 μm for Cx43. […]
# [4] = RFPEC, Hep III, then 16 h with or without 59 μg/ml HS and/or 10 μM S1P, mean±SEM
# [5] = after Hep III, HS 59 μg/ml, S1P 10 μM
Structure (SMILES),"effect of actin disruption on cell-to-cell movement of Lucifer Yellow dye ([1]; preliminary studies, data not shown)","HS expression in GCX, result in words (FIG. 2 legend) ([2]; 25 μIU/ml Hep III, HS 59 μg/ml, S1P 10 μM)","HS coverage of cell surfaces ([2]; RFPEC, Hep III 2 hours, probed 16 hours after, with or without 59 μg/ml exogenous HS and/or 10 μM S1P for the 16 hours, mean±SEM)","Cx43 distribution along the perimeter of the cells [3, 4]","Cx43 distribution/expression, result in words (FIG. 3 legend) [3, 5]","Lucifer Yellow dye spread, neighboring cells receiving dye per scratch-loaded cell [1, 4]","Lucifer Yellow dye transfer, result in words (FIG. 4 legend) [1, 5]"
C=C1[C@@H](C)[C@H]2[C@H](Cc3ccccc3)NC(=O)[C@]23[C@H](OC(C)=O)/C=C/[C@@](C)(O)C(=O)[C@@H](C)C/C=C/[C@H]3[C@@H]1O [cytochalasin D],bars cell-to-cell movement of Lucifer Yellow dye,–,–,–,–,–,–
"CCCCCCCCCCCCC/C=C/[C@@H](O)[C@@H](N)COP(=O)(O)O [S1P, sphingosine-1-phosphate]",–,"significantly recovered the expression of HS in GCX, back to baseline conditions",71.97±5.02%,34.81±5.16%,did not show a significant restoration of Cx43 expression,2.06±0.08 cells,did not improve cell-to-cell communication
